Values belong to the compound of their own block, whether it stands above or below them.
Experiments:
[1] = tested on: skin contact delayed-type hypersensitivity; test: Skin contact delayed-type hypersensitivity (DNFB) response test, ear swelling, topical ointment; assay type: in vivo; details: topical to ears, DNFB DTH, Balb/c mice, compared to blank ointment
Source text: Therapeutic Effect of Topical Administration of Compounds of the Present Application in Skin Contact Delayed-Type Hypersensitivity Response Test in Mice Delayed-type hypersensitivity (DTH) response in mouse skin is considered to be an effective model for clinical contact dermatitis and other T cell-mediated cutaneous immune diseases, such as atopic dermatitis and psoriasis. The DTH in mice shares the common features with these cutaneous immune diseases, including immunoinfiltration with an increase of inflammatory cytokines and hyperproliferation of keratinocytes. Balb/c mice were sensitized by topical administration of the antigen 2,4-dinitrofluorobenzene (DNFB) to the shaved back of mice on Days 0 and 1. On Day 5, the thickness of the ears was measured using an engineering micrometer. The measurement result was recorded and used as a baseline. The animals were then challenged with a total of 20 μL of DNFB (10 μL for the internal pinna and 10 μL for the external pinna) topically dosed to both ears at a concentration of 0.2%. The ears were measured again 24-72 hours after challenge. The compound ointment of the present application was applied topically to the ears of the animals throughout the allergic and challenge periods (Days −1˜7) or before or throughout the challenge period (generally Days 4˜7). The therapeutic effect was expressed by a reduction in ear swelling compared to that of the blank ointment. The compound causing a reduction of 20% or more was considered effective. Table 5 lists the skin contact delayed-type hypersensitivity experiment results in mice treated with the compound of the present application.

[2] = tested on: rash caused by monoclonal EGFR inhibitors; test: Prevention of rash caused by monoclonal EGFR inhibitors, topical ointment, rat model; assay type: in vivo, SD rats
Protocol: An Experiment to Verify the Prevention of Rash Caused by Monoclonal EGFR Inhibitors with Topical Administration of Compounds of the Present Application on a Rat Animal Model After the SD rats were fed and adapted for one week (about 200 g), the rats were divided into 10 rats per group. The hair on the back of rats was gently removed with an electric razor one day before the experiment, and then an administration test was carried out. The experiments were divided into the administration group with the compound of the present application and the control group. The EGFR monoclonal antibody solution diluted with normal saline was injected via the tail vein twice a week, and the injection rate and time are shown in Table 2. After injection, the administration group applied the compound ointment of the present application on the backs (about 3 cm*3 cm) of rats every day, and the control group applied blank matrix ointment (about 0.5 g) to the backs (about 3 cm*3 cm) of rats every day. After drug application, the rats were fixed with a fixed cyclinder for 4 h; after that, the rats were released and the residual drug at the application site was wiped off with clear water. Monoclonal antibody EGFR inhibitors were injected via the tail vein twice a week, and the compound of the present application and blank ointment were applied once a day until obvious rashes appeared in the control group. […] Table 2 lists the animal experiment combinations of various monoclonal antibody EGFR inhibitors and the compound ointment of the present application, as well as the corresponding experiment results (wherein, the value in the control rate column=the number of rats whose rash is milder in the administration group than that in the control group/the total number of rats in the administration group×100%).

[3] = Plasma stability, mini pig plasma; assay type: in vitro ADME, Mini Pigs; details: 37° C.
Protocol: (§1) In addition, the plasma stability of these compounds was determined. Briefly, the determination method comprises the following steps: • 1) Thaw the frozen mixed plasma in a 37° C. water bath before testing, and then centrifuge at 4000 rpm for 5 min to remove blood clots; • 2) Add 98 μL blank plasma into each well of the 96-well reaction plate; • 3) In addition to the blank samples, add 2 μL of 100 μM working solution of test compound into each well; • 3) Incubate the reaction plate at 37° C. and start timing. Incubation times were 0, 10, 30, 60 and 120 minutes, respectively, with two replicate wells at each time point; • 4) Terminate the incubation at the corresponding time point, and add 400 μL of acetonitrile solution containing 200 ng/mL tolbutamide and 200 ng/mL labetalol to precipitate proteins; • 5) Shake each plate for 20 minutes, then centrifuge at 4000 rpm for 20 minutes, transfer 50 μL of supernatant to another 96-well plate, and dilute each sample with 100 μL of pure water; • 6) Analyze the sample by LC-MS/MS.

[4] = Plasma stability, human plasma; assay type: in vitro ADME, Humans; details: 37° C.
Protocol: as §1
The experiment results are as follows, and it can be seen from the test results that the selected compounds are easily metabolized to the target compound in human plasma.

[5] = tested on: rash caused by small molecule EGFR inhibitors; test: Prevention of rash caused by small molecule EGFR inhibitors, topical ointment, rat model; assay type: in vivo, SD rats
Source text: An Experiment to Verify the Prevention of Rash Caused by Small Molecule EGFR Inhibitors with Topical Administration of Compounds of the Present Application on a Rat Animal Model A rat animal model was established. After daily gavage of a small molecule EGFR inhibitor to female SD rats for […], the rats developed extensive rashes on their backs several days later (picture shown in FIG. 1). […] Similar to humans, rats developed skin rashes on their faces and bodies after oral administration of small molecule EGFR inhibitors. Both of them had the same etiology and very similar symptoms. Therefore, rats are a proper animal model for mimicking EGFR inhibitor-induced rash. After the SD rats were fed and adapted for one week (about 200 g), the rats were divided into 10 rats per group. The hair on the back of rats was gently removed with an electric razor one day before the experiment, and then an intragastric administration test was carried out. EGFR inhibitors were dissolved in a sterile aqueous solution, and diluted with PBS buffer; the amount of each gavage was not more than 2 mL, and the dosage was shown in Table 1. The experiment comprised the administration group and the control group. After intragastric administration, apply the ointment (type and concentration are shown in Table 1) of the compound used in the present application to the backs (about 3 cm*3 cm) of rats in the administration group; apply blank matrix ointment (about 0.5 g) to the backs (about 3 cm*3 cm) of rats in the control group; fix the rats with a fixed cylinder for about 4 hours after drug application, release the rats after 4 hours, wipe off the residual drug at the application site with clean water, and put them back into the cage. The frequency of intragastric administration of EGFR inhibitors is shown in Table 1, but the compounds of the present application and blank matrix ointment are applied only once a day. The intragastric administration and application test were repeated daily until an obvious rash appeared in the control group. […] Table 1 lists the animal experiment combination of various small molecule EGFR inhibitors and the compound ointment of the present application, as well as the corresponding experiment results (wherein, the value in the control rate column=the number of rats whose rash is milder in the administration group than that in the control group/the total number of rats in the administration group×100%).

[6] = tested on: rash caused by small molecule EGFR inhibitors; test: Treatment of rash caused by small molecule EGFR inhibitors, topical ointment, rat model; assay type: in vivo, SD rats
Protocol: An Experiment to Verify the Treatment of Rash Caused by Small Molecule EGFR Inhibitors with Topical Administration of Compounds of the Present Application on a Rat Animal Model After the SD rats were fed and adapted for one week (about 200 g), the rats were divided into 10 rats per group. The hair on the back of rats was gently removed with an electric razor one day before the experiment, and then an intragastric administration test was carried out. EGFR inhibitors were dissolved in a sterile aqueous solution, and diluted with PBS buffer; the amount of each gavage was not more than 2 mL, and the dosage was shown in Table 3. […] The experiments were divided into the administration group with the compound of the present application and the control group. During the treatment experiment, EGFR inhibitors were intragastrically administered continuously every day. After the gavage, the administration group applied the compound ointment of the present application on the back (about 3 cm*3 cm) of rats, and the control group applied blank matrix ointment on the back (about 3 cm*3 cm); after application, the rats were fixed with a fixed cyclinder for about 4 hours, and then the rats were released, with the residual drug at the application site wiped off with clean water, and put back into the cage. The frequency of intragastric administration of EGFR inhibitors is shown in Table 3, but the compounds of the present application and blank ointment are applied only once a day. […] Table 3 lists the animal experiment combinations of various small molecule EGFR inhibitors and the compound ointment of the present application, as well as the corresponding experiment results (wherein, the value in the control rate column=the number of rats whose rash is milder in the administration group than that in the control group/the total number of rats in the administration group×100%).

[7] = tested on: rash caused by monoclonal EGFR inhibitors; test: Treatment of rash caused by monoclonal EGFR inhibitors, topical ointment, rat model; assay type: in vivo; details: SD rats
Protocol: An Experiment to Verify the Treatment of Rash Caused by Monoclonal EGFR Inhibitors with Topical Administration of Compounds of the Present Application on a Rat Animal Model After the SD rats were fed and adapted for one week (about 200 g), the rats were divided into 10 rats per group. The hair on the back of rats was gently removed with an electric razor one day before the experiment, and then an administration test was carried out. The EGFR monoclonal antibody solution diluted with normal saline was injected via tail vein twice a week, and the injection rate and time were shown in Table 4; the treatment experiment was started at the time point when rats developed a rash after continuous administration for 1-2 weeks. The experiments were divided into the administration group with the compound of the present application and the control group. During the treatment experiment, monoclonal antibody EGFR inhibitors were injected twice a week. the administration group applied the compound ointment of the present application on the back (about 3 cm*3 cm) of rats every day, and the control group applied blank matrix ointment on the back (about 3 cm*3 cm); after application, the rats were fixed with a fixed cyclinder for about 4 hours, and then the rats were released, with the residual drug at the application site wiped off with clean water, and put back into the cage. […] Table 4 lists the animal experiment combinations of monoclonal antibody EGFR inhibitors and the compound ointment of the present application, as well as the corresponding experiment results (wherein, the value in the control rate column=the number of rats whose rash is milder in the administration group than that in the control group/the total number of rats in the administration group×100%).

- half-life at 2 µM [3]: 2.8 min
- % Retained ([3]; 0 min): 100.0%
- % Retained ([3]; 10 min): 8.3%
- % Retained ([3]; 30 min): 0.1%
- % Retained ([3]; 60 min): 0.0%
- % Retained ([3]; 120 min): 0.0%
- half-life at 2 µM [4]: 2.2 min
- % Retained ([4]; 0 min): 100.0%
- % Retained ([4]; 10 min): 4.5%
- % Retained ([4]; 30 min): 0.0%
- % Retained ([4]; 60 min): 0.0%
- % Retained ([4]; 120 min): 0.0%
Compound: C[C@@H]1CCN(C(=O)CC#N)C[C@@H]1N(C)c1ncnc2c1ccn2C(=O)N(C)CCOC(=O)C1CCCCC1 [Compound A16]
- Reduction Rate of Ear Swelling ([1]; ointment 0.1 wt%): 25%
- Reduction Rate of Ear Swelling ([1]; ointment 1.0 wt%): 35%
- Reduction Rate of Ear Swelling ([1]; ointment 5.0 wt%): 39%
- Reduction Rate of Ear Swelling ([1]; ointment 10.0 wt%): 42%
- Control Rate ([2]; Cetuximab 100 mg/kg twice a week via tail vein, ointment 0.3 wt% once a day, 10 days): 10%
- Control Rate ([2]; Cetuximab 100 mg/kg twice a week via tail vein, ointment 3.0 wt% once a day, 10 days): 50%
- Control Rate ([2]; Cetuximab 100 mg/kg twice a week via tail vein, ointment 10.0 wt% once a day, 10 days): 70%
- Control Rate ([2]; Panitumumab 10 mg/kg twice a week via tail vein, ointment 1.0 wt% once a day, 14 days): 50%
- Control Rate ([2]; Panitumumab 10 mg/kg twice a week via tail vein, ointment 5.0 wt% once a day, 14 days): 80%
- Control Rate ([2]; Panitumumab 10 mg/kg twice a week via tail vein, ointment 10.0 wt% once a day, 14 days): 60%
- Control Rate ([5]; Afatinib 40 mg/kg once a day, ointment 1.0 wt% once a day, 14 days): 60%
- Control Rate ([5]; Afatinib 40 mg/kg once a day, ointment 5.0 wt% once a day, 14 days): 80%
- Control Rate ([5]; Afatinib 40 mg/kg once a day, ointment 10.0 wt% once a day, 14 days): 100%
- Control Rate ([5]; BPI-7711 60 mg/kg once a day, ointment 1.0 wt% once a day, 12 days): 50%
- Control Rate ([5]; Erlotinib 70 mg/kg once a day, ointment 0.3 wt% once a day, 14 days): 30%
- Control Rate ([5]; Erlotinib 70 mg/kg once a day, ointment 3.0 wt% once a day, 14 days): 50%
- Control Rate ([5]; Zorifertinib 60 mg/kg once a day, ointment 1.0 wt% once a day, 14 days): 30%

Compound: C=CC(=O)N1C[C@@H](Nc2ncnc3c2ccn3C(=O)N(C)CCOC(=O)C2CC2)CC[C@H]1C [Compound A33]
- Reduction Rate of Ear Swelling ([1]; ointment 1.0 wt%): 22%
- Reduction Rate of Ear Swelling ([1]; ointment 5.0 wt%): 32%
- Control Rate ([6]; EAI045 80 mg/kg once a day, 8 dosing modelling days, ointment 1.0 wt% once a day): 30%
- Control Rate ([6]; EAI045 80 mg/kg once a day, 8 dosing modelling days, ointment 5.0 wt% once a day): 60%
- Control Rate ([6]; Osimertinib 60 mg/kg twice a day, 7 dosing modelling days, ointment 3.0 wt% once a day): 30%
- Control Rate ([6]; Osimertinib 60 mg/kg twice a day, 7 dosing modelling days, ointment 10.0 wt% once a day): 70%
- Control Rate ([7]; Cetuximab 100 mg/kg twice a week via tail vein, ointment 0.1 wt%, 10 days of drug application): 20%
- Control Rate ([7]; Cetuximab 100 mg/kg twice a week via tail vein, ointment 1.0 wt%, 10 days of drug application): 50%
- Control Rate ([7]; Cetuximab 100 mg/kg twice a week via tail vein, ointment 5.0 wt%, 10 days of drug application): 80%
- Control Rate ([7]; Cetuximab 100 mg/kg twice a week via tail vein, ointment 10.0 wt%, 10 days of drug application): 100%
- Control Rate ([7]; Panitumumab 6 mg/kg twice a week via tail vein, ointment 0.1 wt%, 8 days of drug application): 30%
- Control Rate ([7]; Panitumumab 6 mg/kg twice a week via tail vein, ointment 1.0 wt%, 8 days of drug application): 70%
- Control Rate ([7]; Panitumumab 6 mg/kg twice a week via tail vein, ointment 5.0 wt%, 8 days of drug application): 70%
- Control Rate ([7]; Panitumumab 6 mg/kg twice a week via tail vein, ointment 10.0 wt%, 8 days of drug application): 100%

Source: US20250188088A1, “COMPOUND AND USE THEREOF” (ONQUALITY PHARMACEUTICALS CHINA LTD., priority 2022, published 2025)
